Numbering of substitutions follows the chain as printed. Activity calls are given as the source filed them. The rule behind the calls is not given here.
Assays:
[1] = biological target: T1, Lysosomal acid glucosylceramidase (Homo sapiens, UniProt P04062); assay: Inhibition of partially purified human placental beta-glucocerebrosidase after 15 to 60 mins
T1 sequence (P04062 whole entry): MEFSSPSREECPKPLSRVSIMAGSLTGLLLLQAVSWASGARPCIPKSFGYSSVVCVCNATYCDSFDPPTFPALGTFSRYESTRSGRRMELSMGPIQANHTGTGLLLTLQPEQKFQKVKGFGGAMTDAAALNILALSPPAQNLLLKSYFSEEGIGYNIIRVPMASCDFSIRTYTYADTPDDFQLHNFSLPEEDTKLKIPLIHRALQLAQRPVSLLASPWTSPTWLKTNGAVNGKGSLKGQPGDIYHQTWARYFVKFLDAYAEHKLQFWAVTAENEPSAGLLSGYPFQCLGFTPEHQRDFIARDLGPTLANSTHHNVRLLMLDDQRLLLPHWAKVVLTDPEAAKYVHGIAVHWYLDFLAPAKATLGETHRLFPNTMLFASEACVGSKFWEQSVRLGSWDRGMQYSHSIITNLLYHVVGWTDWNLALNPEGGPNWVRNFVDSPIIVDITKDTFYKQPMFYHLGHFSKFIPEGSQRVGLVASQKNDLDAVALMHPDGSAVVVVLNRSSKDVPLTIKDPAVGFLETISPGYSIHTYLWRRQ

[2] = test system: T2, Lysosomal acid glucosylceramidase (Homo sapiens), P04062 [N409S]; assay: Activation of beta-glucocerebrosidase in human N370S cells assessed as increase of residual activity at 0.05 to 100 uM after 3 days; format: cell-based
T2 sequence (whole entry): T1 sequence (P04062 whole entry) with N409S

HL-60 [3] = assay: Inhibition of endoplasmic reticulum alpha-glucosidase 1 in human HL-60 cells assessed as free oligosaccharide level at 500 uM after 24 hrs; format: cell-based
Rattus norvegicus [4] = organism: Rattus norvegicus; assay: Inhibition of rat liver alpha-glucosidase 2 assessed as conversion of Glc2Man7GlcNAc2 to Man7GlcNAc2 at 500 uM after 1.25 hrs
[5] = biological target: T3, Neutral alpha-glucosidase AB (Homo sapiens) (UniProt Q14697); assay: Inhibition of endoplasmic reticulum alpha-glucosidase 2 in human HL-60 cells assessed as free oligosaccharide level at 500 uM after 24 hrs; format: cell-based
T3 sequence (whole entry): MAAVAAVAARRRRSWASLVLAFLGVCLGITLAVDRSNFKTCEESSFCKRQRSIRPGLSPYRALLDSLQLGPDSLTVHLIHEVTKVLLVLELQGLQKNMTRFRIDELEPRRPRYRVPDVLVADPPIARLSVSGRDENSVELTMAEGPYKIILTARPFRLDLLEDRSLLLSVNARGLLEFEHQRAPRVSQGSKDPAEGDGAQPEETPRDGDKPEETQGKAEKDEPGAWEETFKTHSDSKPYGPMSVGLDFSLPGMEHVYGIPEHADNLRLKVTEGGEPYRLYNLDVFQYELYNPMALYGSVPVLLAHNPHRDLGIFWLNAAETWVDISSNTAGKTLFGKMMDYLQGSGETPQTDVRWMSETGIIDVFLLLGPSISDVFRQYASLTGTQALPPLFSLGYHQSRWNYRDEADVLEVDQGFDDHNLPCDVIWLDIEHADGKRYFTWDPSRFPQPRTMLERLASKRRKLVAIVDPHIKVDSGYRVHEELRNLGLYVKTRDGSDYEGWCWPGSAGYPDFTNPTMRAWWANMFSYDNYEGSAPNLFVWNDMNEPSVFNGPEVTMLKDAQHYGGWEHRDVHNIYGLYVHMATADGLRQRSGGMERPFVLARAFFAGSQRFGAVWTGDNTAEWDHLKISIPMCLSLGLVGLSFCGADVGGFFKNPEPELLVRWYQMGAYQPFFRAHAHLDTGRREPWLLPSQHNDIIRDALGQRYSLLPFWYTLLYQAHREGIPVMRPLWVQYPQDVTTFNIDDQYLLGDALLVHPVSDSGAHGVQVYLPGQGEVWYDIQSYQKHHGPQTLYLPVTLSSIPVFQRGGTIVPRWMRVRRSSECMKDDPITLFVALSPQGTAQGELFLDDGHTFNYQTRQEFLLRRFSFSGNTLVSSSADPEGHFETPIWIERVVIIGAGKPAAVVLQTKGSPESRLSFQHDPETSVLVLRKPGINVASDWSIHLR

[6] = test system: T2, Lysosomal acid glucosylceramidase (Homo sapiens), P04062 [N409S]; assay: Activation of beta-glucocerebrosidase in human N370S cells assessed as increase of residual activity at 0.05 to 100 uM after 3 days relative to control; format: cell-based
Rattus norvegicus [7] = organism: Rattus norvegicus; assay: Inhibition of rat liver alpha-glucosidase 2 assessed as conversion of Glc2Man7GlcNAc2 to Glc1Man7GlcNAc2 at 500 uM after 1.25 hrs
[8] = biological target: T3, Neutral alpha-glucosidase AB (Homo sapiens); assay: Inhibition of endoplasmic reticulum alpha-glucosidase 2 in human HL-60 cells assessed as free oligosaccharide level at 50 uM after 24 hrs; format: cell-based
Rattus norvegicus [9] = organism: Rattus norvegicus; assay: Inhibition of rat liver alpha-glucosidase 2 assessed as conversion of Glc2Man7GlcNAc2 to Glc1Man7GlcNAc2 at 100 uM after 1.25 hrs
Rattus norvegicus [10] = organism: Rattus norvegicus; assay: Inhibition of rat liver alpha-glucosidase 2 assessed as conversion of Glc2Man7GlcNAc2 to Man7GlcNAc2 at 100 uM after 1.25 hrs
HL-60 [11] = assay: Inhibition of endoplasmic reticulum alpha-glucosidase 1 in human HL-60 cells assessed as free oligosaccharide level at 50 uM after 24 hrs; format: cell-based

CCCCCCCCCN1[C@@H]2CC[C@@]1(O)[C@@H](O)[C@H](O)[C@H]2CO
IC50 [1]: 60 µM
Activity [2]: inactive

OC[C@@H]1[C@@H](O)[C@H](O)[C@]2(O)CC[C@H]1N2 [NOEUROSTEGINE]
IC50 [1]: 0.4 µM
inhibition (HL-60 [3]): inactive
inhibition (Rattus norvegicus [4]): inactive
inhibition [5]: inactive
fold change (FC) [6]: 1.82
inhibition (Rattus norvegicus [7]): inactive

CCCCN1[C@@H]2CC[C@@]1(O)[C@@H](O)[C@H](O)[C@H]2CO
IC50 [1]: 100 µM
Activity [2]: inactive

CCCCN1C[C@H](O)[C@@H](O)[C@H](O)[C@H]1CO
inhibition [8]: Active
inhibition (Rattus norvegicus [9]): Active
inhibition (Rattus norvegicus [10]): Active
inhibition (HL-60 [11]): Active

O[C@@H]1[C@@H](O)[C@H](O)[C@]2(O)CC[C@H]1N2 [CALYSTEGINE B2]
IC50 [1]: 1 µM
